Laboratory results published in PubChem BioAssay (NCI).
“And” between values parts separate entries of the source, which are not always exact repeats. Equal values may be shown once.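 Where inhibition never reached the appropriate level, the endpoint shown equals the highest concentration tested. Otherwise, values were interpolated linearly from a five-concentration, 48-hour dose response in 96-well plates. Here, GI50 denotes the concentration required for 50% inhibition of growth. TGI denotes the concentration required for complete inhibition of growth.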 *1 amine or outer side, *2 acyl side, *3 side chain or, on linkers, in order; H or OH if unused. Where a SMILES comes first, the peptide text is derived from it. Bridges are numbered along the chain shown (N, C = ends). Roman numbers before positions name the chains, in order. [ ]: non-standard residue; d: D form. Actinocin(9to1) = Cc1c2oc3c(C)ccc(C(=O)[*:1])c3nc-2c(C(=O)[*:2])c(N)c1=O; NMeF = CN[CH](Cc1ccccc1)C(=O)O; Sar = CNCC(=O)O

What was measured:
Assay in all cases: NCI anticancer screen, dose series, 48 h
[1] = tested on: MCF7 breast
[2] = tested on: DU-145 prostate
[3] = tested on: HL-60(TB) leukemia
[4] = tested on: UO-31 renal
[5] = tested on: HCT-116 colon
[6] = tested on: K-562 leukemia
[7] = tested on: SR leukemia
[8] = tested on: HCT-15 colon
[9] = tested on: SF-268 CNS
[10] = tested on: SN12C renal

Row | Compound | GI50 [1] | TGI [1] | GI50 [2] [µM] | TGI [2] | GI50 [3] | TGI [3] | GI50 [4] | TGI [4] | GI50 [5] [µM] | TGI [5] | GI50 [6] | TGI [6] | GI50 [7] [µM] | TGI [7] [µM] | GI50 [8] | TGI [8] | GI50 [9] [µM] | TGI [9] [µM] | GI50 [10] | TGI [10]
1 | CC1=NN(c2nc(N)nc(/C=C\c3ccc([N+](=O)[O-])s3)n2)C(C)(C)C1 | > 100 µM | > 100 µM | > 100 | > 100 µM | > 100 µM | > 100 µM | > 100 µM | > 100 µM | > 100 | > 100 µM | 40.9 µM | > 100 µM | 49.9 | > 100 | > 100 µM | > 100 µM | > 100 | > 100 | > 100 µM | > 100 µM
2 | O=C1C(Cl)=C(Nc2cccc(C(F)(F)F)c2)C(=O)N1Cc1ccc(Cl)cc1 |  | 4.82 µM | 1.13 | 7.92 µM | 1.7 µM | > 100 µM | 1.11 µM | 33.8 µM | 0.0705 | 4.88 µM | 1.33 µM | > 100 µM | < 0.0219 | > 65.3 | 0.166 µM | 12.5 µM | 0.312 | 14.8 | 0.545 µM | 10.7 µM
3 | CS(=O)(=O)N(c1cc(-c2ccc3ncnc(Nc4cccc(Cl)c4)c3c2)cnc1Cl)S(C)(=O)=O | 0.23 µM | 9.69 µM | 0.508 | 14.1 µM | 0.284 µM | 6.48 µM | 0.232 µM | 2.52 µM | 0.622 | 3.74 µM | 1.23 µM | 45.1 µM | 0.696 | 6.68 | 0.403 µM | 6.99 µM | 0.49 | 12.7 | 0.386 µM | 17 µM
4 | O=C(NC(=S)Nc1cc(Cl)ccc1O)c1cccc(Br)c1 | 2.11 µM | > 100 µM | 12.3 | > 100 µM | 7.12 µM | > 100 µM | 6.12 µM | 56.3 µM | 10.8 | > 100 µM | 4.94 µM | > 100 µM | 7.34 | > 100 | 4.78 µM | > 100 µM | 7.83 | > 100 | 12.5 µM | > 100 µM
5 | COc1c(B(O)O)cc(F)cc1-c1nc2ccc3[nH]ncc3c2c2c1CCCC2 | 1.53 µM | 6.57 µM | 1.7 | 12.9 µM | 0.112 µM | 10.5 µM | 0.045 µM | 9.21 µM | 0.322 | 10.3 µM | 3.27 µM | > 100 µM | 0.108 | > 38.6 | 2.12 µM | 9.44 µM | 1.42 | 10.5 | 1.15 µM | 15.3 µM
6 | CC(O)c1cc(C(=O)N[C@@H](C)Cn2ccc(-c3ccc(C#N)c(Cl)c3)n2)n[nH]1 (stereo not given in full) | 30.7 µM | > 100 µM | > 100 | > 100 µM | 0.0272 µM | 0.24 µM | 35.1 µM | > 100 µM | 45.7 | > 100 µM | 0.73 µM | > 100 µM | 8.06 | > 100 | > 100 µM | > 100 µM | > 100 | > 100 | 48.7 µM | > 100 µM
7 | Cn1cc(C2=C(N3CCOCC3)C(=O)NC2=O)c2ccccc21 | > 25 µM | > 25 µM | > 25 | > 25 µM | > 25 µM | > 25 µM | > 25 µM | > 25 µM | > 25 | > 25 µM | > 25 µM | > 25 µM | > 25 | > 25 | > 25 µM | > 25 µM | > 25 | > 25 | > 25 µM | > 25 µM
8 | Cc1c2oc3c(C)ccc(C(=O)NC4C(=O)NC(C(C)C)C(=O)N5CCCC5C(=O)N(C)CC(=O)N(C)C(Cc5ccccc5)C(=O)OC4C)c3nc-2c(C(=O)NC2C(=O)NC(C(C)C)C(=O)N3CCCC3C(=O)N(C)CC(=O)N(C)C(Cc3ccccc3)C(=O)OC2C)c(N)c1=O (stereo not given) (I: TVP[Sar][NMeF] / II: TVP[Sar][NMeF]; ester I:1-I:C, II:1-II:C; linker I:N-II:N via Actinocin(9to1); configuration not given here) | 0.00126 µM | 0.0136 µM |  | < 0.01 µM and 0.0698 µM | 0.00285 µM | 0.0205 µM | < 0.01 µM and 0.0968 µM |  | < 0.01 | 0.194 µM and > 1 µM | 0.00115 µM |  | 0.000199 |  | < 0.0147 µM and 0.0622 µM | > 31.6 µM |  | > 0.674 | < 0.01 µM and 0.00213 µM | 
9 | Oc1ccc(Cc2cc(Cl)cc(Cl)c2O)cc1Cl |  | 32.5 µM |  | 24.4 µM |  | 3.36 µM |  | 31 µM |  | 37.2 µM |  | 37.6 µM |  | 47.2 |  | 35.2 µM |  | 31 |  | 30.2 µM
10 | Cc1coc2c1C(OC(=O)C(C)C)C1(C)C(C)CCC(O)C1C2=O (stereo not given) |  | > 100 µM |  | > 100 µM |  | > 100 µM |  | > 100 µM |  | > 100 µM |  | > 100 µM |  | > 100 |  | > 100 µM |  | > 100 |  | > 100 µM
11 | C[C@@H]1COCCN1c1cc(C2(O)C[C@H]3CC[C@@H](C2)O3)c2cnn(-c3ccn[nH]3)c2n1 (stereo not given in full) | < 0.0106 µM | 1.38 µM | 0.0553 | 2.46 µM | 0.172 µM |  | 0.0427 µM | 0.554 µM | 0.118 | > 100 µM | 0.063 µM | > 100 µM | 0.0112 | 26.9 | 0.0394 µM | > 42.2 µM | 0.111 | 2.04 | 0.143 µM | 4.09 µM
12 | COc1cccc2c1n([O-])c1cccc(OC)c1[n+]2=O | 3.15 µM | 25.6 µM | 7.97 | > 100 µM | 3.23 µM | 9.12 µM | 6.7 µM | 32.7 µM | 3.7 | 64.3 µM | 6.13 µM | > 100 µM | 0.897 | 9.36 | 4.95 µM | > 100 µM | 6.71 | 35.3 | 6.85 µM | > 100 µM
13 | CC(=C/c1ccccc1)/C=C1/NC(=S)N(/C=C2\C(=O)Oc3ccccc3C2=O)C1=O |  | > 100 µM |  | > 100 µM |  | > 100 µM | 91.7 µM | > 100 µM |  | > 100 µM |  | > 100 µM |  | > 100 |  | > 100 µM |  | > 100 |  | > 100 µM
14 | O=C(c1ccccc1)c1c(C(F)(F)F)n([O-])c2ccc(C(F)(F)F)cc2[n+]1=O | 0.305 µM | 0.82 µM | 0.289 | 0.698 µM | 0.084 µM | 0.309 µM | 0.173 µM | 0.322 µM | 0.138 | 0.27 µM | 0.319 µM | 0.779 µM | 0.109 | 0.393 | 0.277 µM | 0.711 µM | 0.195 | 0.449 | 0.215 µM | 0.468 µM
15 | CCN(CC)C(=S)[S][Bi]([S]C(=S)N(CC)CC)[S]C(=S)N(CC)CC | 0.119 µM | 0.349 µM | 1.28 | 2.59 µM | 0.127 µM | 19.9 µM | 0.216 µM | 0.468 µM | 0.0858 | 0.247 µM | 0.123 µM | > 31.6 µM | 0.0353 | 23.4 | 0.164 µM | 0.348 µM | 0.455 | 1.77 | 0.264 µM | 0.696 µM
16 | CC(=O)c1nc2ccccc2n1CC(=O)c1cccc(Cl)c1 | 0.335 µM | > 100 µM | 0.647 | > 31.8 µM | 0.144 µM | 0.61 µM | 1.27 µM | > 100 µM | 0.401 | > 100 µM | 0.113 µM | > 44.1 µM | 0.121 | 1.48 | 0.246 µM | > 100 µM | 1.12 | > 71.7 | 0.838 µM | > 100 µM
17 | Cc1c([N+](=O)[O-])oc2ccc3ccccc3c12 |  | 93.7 µM |  | 83.7 µM |  | > 100 µM |  | > 100 µM |  | 34.2 µM |  | > 100 µM |  | > 100 |  | > 100 µM |  | > 100 |  | > 100 µM
18 | CCSc1ccc(C2C(Br)C(=O)N2c2cc(OC)c(OC)c(OC)c2)cc1 (stereo not given) | 0.0447 µM | 17 µM | 0.349 | > 100 µM | 0.214 µM | 0.527 µM | 0.342 µM | 15.5 µM | 0.222 | 10.6 µM | 0.0545 µM | > 100 µM | 0.0765 | 26.3 | 0.21 µM | 18.2 µM | 1.18 | 52.7 | 0.925 µM | 21 µM
19 | CNCCN=c1ccc2c3c1c(O)c1c(O)ccc(=O)c1c3[nH]n2CCNCCO | 0.0568 µM and 0.05 µM | 7.51 µM and 5.2 µM |  | 1.27 µM and 0.942 µM | 0.0496 µM and 0.314 µM | 0.663 µM and 1.22 µM | 0.918 µM and 3.47 µM | 13 µM and 62.2 µM | 0.207 | 4.9 µM and 5.37 µM | 0.224 µM and 0.296 µM | 3.66 µM and 10.9 µM |  | 3.25 | 1.52 µM | 24.8 µM and 41.2 µM |  | 2.57 | 0.0859 µM | 2.41 µM and 2.39 µM
